Key:
[1] = system: purple nutsedge; assay: Test B pre/postemergence purple nutsedge; type: in vivo, Cyperus rotundus
Outline: (§1)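 Response is a visual 0-to-10 score relative to untreated plants, where 0 means no effect and 10 means complete control, taken twelve to sixteen days after application. Treatments went onto soil at planting and onto foliage of 1- to 4-leaf plants, using a surfactant-containing non-phytotoxic solvent.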

[2] = system: blackgrass; assay: Test B pre/postemergence blackgrass; type: in vivo, Alopecurus myosuroides
Outline: as §1

[3] = system: velvetleaf; assay: Test B pre/postemergence velvetleaf; type: in vivo, Abutilon theophrasti
Outline: as §1

[4] = system: rape; assay: Test B pre/postemergence rape; type: in vivo, Brassica napus
Outline: as §1

[5] = system: bamyardgrass; assay: Test B flood test barnyardgrass; type: in vivo, Echinochloa crus-galli
Outline: (§2)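 Flood test on plants grown to the 2-leaf stage; treated plants kept in greenhouse twelve to sixteen days, then visually rated against controls on a 0 (no effect) to 10 (complete control) scale.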

[6] = system: duck salad; assay: Test B flood test duck salad; type: in vivo, Heteranthera limosa
Outline: as §2

[7] = system: morningglory; assay: Test B pre/postemergence morningglory; type: in vivo, Ipomoea hederacea
Outline: as §1

[8] = system: surinam grass; assay: Test B pre/postemergence surinam grass; type: in vivo, Brachiaria decumbens
Outline: as §1

[9] = system: rice; assay: Test B flood test rice; type: in vivo, Oryza sativa
Outline: as §2

[10] = system: sugar beet; assay: Test B pre/postemergence sugar beet; type: in vivo, Beta vulgaris
Outline: as §1

[11] = system: corn; assay: Test B pre/postemergence corn; type: in vivo, Zea mays
Outline: as §1

[12] = system: bedstraw; assay: Test B pre/postemergence bedstraw; type: in vivo, Galium aparine
Outline: as §1

[13] = system: giant foxtail; assay: Test B pre/postemergence giant foxtail; type: in vivo, Setaria faberii
Outline: as §1

[14] = system: cocklebur; assay: Test B pre/postemergence cocklebur; type: in vivo, Xanthium strumarium
Outline: as §1

[15] = system: pigweed; assay: Test B pre/postemergence pigweed; type: in vivo, Amaranthus retroflexus
Outline: as §1

[16] = Postemergence, Rate 125 g/ha, scale of 0 to 10 where 0 is no effect and 10 is complete control
[17] = Preemergence, Rate 62 g/ha, scale 0 to 10 (0 no effect, 10 complete control)
[18] = Preemergence, Rate 125 g/ha, 0 is no effect, 10 is complete control
[19] = Preemergence, Rate 250 g/ha, scale 0 to 10, 0 is no effect, 10 is complete control
[20] = Preemergence, Rate 500 g/ha, scale 0 to 10 (0 no effect, 10 complete control)
[21] = Rate 62 g/ha, Postemergence, scale of 0 to 10 where 0 is no effect and 10 is complete control
[22] = Rate 250 g/ha, Postemergence, scale 0 to 10, 0 is no effect, 10 is complete control
[23] = Rate 500 g/ha, Postemergence, scale 0 to 10, 0 no effect, 10 complete control
[24] = Postemergence (flood test species), Rate 125 g/ha, scale of 0 to 10 where 0 is no effect and 10 is complete control
[25] = Postemergence, Rate 62 g/ha, scale 0 to 10, 0 is no effect, 10 is complete control
[26] = Rate 250 g/ha, Postemergence (flood test), scale 0 to 10, 0 is no effect, 10 is complete control
[27] = Rate 250 g/ha, headed Pre-emergence (flood test species), scale 0 to 10 (0 no effect, 10 complete control)
[28] = Rate 500 g/ha, headed Pre-emergence (flood test species), scale 0 to 10 (0 no effect, 10 complete control)
[29] = Rate 500 g/ha, listed under Postemergence (flood test species), scale 0 to 10, 0 no effect, 10 complete control
[30] = Rate 1000 g/ha, Pre-emergence (as headed), scale 0 to 10
[31] = Rate 62 g/ha, Postemergence section, flood test species, scale of 0 to 10 where 0 is no effect and 10 is complete control
[32] = Rate 2000 g/ha, Pre-emergence (as headed), scale 0 to 10

CC(C)N(C(=O)n1oc(=O)n(-c2ccnn2C)c1=O)c1ccc(F)cc1 [Compound 124]
Nutsedge plant response rating [1, 16]: 0
Nutsedge plant response rating [1, 17]: 0
Nutsedge plant response rating (0 to 10 scale) [1, 18]: 0
Nutsedge plant response rating [1, 19]: 0
Nutsedge plant response rating [1, 20]: 0
Nutsedge plant response rating [1, 21]: 0
Plant response rating, Nutsedge [1, 22]: 0
Nutsedge plant response rating [1, 23]: 0
Blackgrass plant response rating [2, 16]: 0
Blackgrass plant response rating [2, 17]: 0
Blackgrass plant response rating (0 to 10 scale) [2, 18]: 0
Blackgrass plant response rating [2, 19]: 0
Blackgrass plant response rating [2, 20]: 0
Blackgrass plant response rating [2, 21]: 0
Plant response rating, Blackgrass [2, 22]: 0
Blackgrass plant response rating [2, 23]: 0
Velvetleaf plant response rating [3, 16]: 0
Velvetleaf plant response rating [3, 17]: 0
Velvetleaf plant response rating (0 to 10 scale) [3, 18]: 0
Velvetleaf plant response rating [3, 19]: 0
Velvetleaf plant response rating [3, 20]: 0
Velvetleaf plant response rating [3, 21]: 0
Plant response rating, Velvetleaf [3, 22]: 0
Velvetleaf plant response rating [3, 23]: 0
Rape plant response rating [4, 16]: 0
Rape plant response rating [4, 17]: 0
Rape plant response rating (0 to 10 scale) [4, 18]: 0
Rape plant response rating [4, 19]: 0
Rape plant response rating [4, 20]: 0
Rape plant response rating [4, 21]: 0
Plant response rating, Rape [4, 22]: 0
Rape plant response rating [4, 23]: 0
Barnyardgrass plant response rating [5, 24]: 0
Barnyardgrass plant response rating [5, 25]: 0
Plant response rating, Barnyardgrass [5, 26]: 0
Barnyardgrass plant response rating [5, 27]: 0
Plant response rating, Barnyardgrass [5, 28]: 0
Barnyardgrass plant response rating [5, 29]: 0
Barnyardgrass plant response rating [5, 30]: 0
Barnyardgrass plant response rating ([5]; Rate 2000 g/ha, Pre-emergence (as headed), scale 0 to 10, 0 no effect, 10 complete control): 0
Ducksalad plant response rating [6, 24]: 0
Ducksalad plant response rating [6, 31]: 0
Plant response rating, Ducksalad [6, 26]: 0
Ducksalad plant response rating [6, 27]: 0
Plant response rating, Ducksalad [6, 28]: 0
Ducksalad plant response rating [6, 29]: 0
Ducksalad plant response rating [6, 30]: 0
Ducksalad plant response rating [6, 32]: 0
Morningglory plant response rating [7, 16]: 0
Morningglory plant response rating [7, 17]: 0
Morningglory plant response rating (0 to 10 scale) [7, 18]: 0
Morningglory plant response rating [7, 19]: 0
Morningglory plant response rating [7, 20]: 0
Morningglory plant response rating [7, 21]: 0
Plant response rating, Morningglory [7, 22]: 0
Morningglory plant response rating [7, 23]: 2
B. signalgrass plant response rating [8, 25]: 0
B. signalgrass plant response rating [8, 16]: 0
B. signalgrass plant response rating [8, 17]: 0
B. signalgrass plant response rating (0 to 10 scale) [8, 18]: 0
B. signalgrass plant response rating [8, 19]: 0
B. signalgrass plant response rating [8, 20]: 0
Plant response rating, B. signalgrass [8, 22]: 0
B. signalgrass plant response rating ([8]; Rate 500 g/ha, Postemergence, scale of 0 to 10 where 0 is no effect and 10 is complete control): 0
Rice plant response rating [9, 24]: 0
Rice plant response rating [9, 31]: 0
Plant response rating, Rice [9, 26]: 0
Rice plant response rating [9, 27]: 0
Plant response rating, Rice [9, 28]: 0
Rice plant response rating [9, 29]: 0
Rice plant response rating [9, 30]: 0
Rice plant response rating [9, 32]: 0
Sugarbeets plant response rating [10, 16]: 0
Sugarbeets plant response rating [10, 17]: 0
Sugarbeets plant response rating (0 to 10 scale) [10, 18]: 0
Sugarbeets plant response rating [10, 19]: 0
Sugarbeets plant response rating [10, 20]: 0
Sugarbeets plant response rating [10, 21]: 0
Plant response rating, Sugarbeets [10, 22]: 0
Sugarbeets plant response rating [10, 23]: 0
Corn plant response rating [11, 16]: 0
Corn plant response rating [11, 17]: 0
Corn plant response rating (0 to 10 scale) [11, 18]: 0
Corn plant response rating [11, 19]: 0
Corn plant response rating [11, 20]: 0
Corn plant response rating [11, 21]: 0
Plant response rating, Corn [11, 22]: 0
Corn plant response rating [11, 23]: 0
Bedstraw plant response rating [12, 17]: 0
Bedstraw plant response rating (0 to 10 scale) [12, 18]: 0
Bedstraw plant response rating [12, 19]: 0
Bedstraw plant response rating [12, 20]: 0
Bedstraw plant response rating [12, 23]: 0
Giant foxtail plant response rating [13, 16]: 0
Giant foxtail plant response rating [13, 17]: 0
Giant foxtail plant response rating (0 to 10 scale) [13, 18]: 0
Giant foxtail plant response rating [13, 19]: 0
Giant foxtail plant response rating [13, 20]: 0
Giant foxtail plant response rating [13, 21]: 0
Plant response rating, Giant foxtail [13, 22]: 0
Giant foxtail plant response rating [13, 23]: 0
Cocklebur plant response rating [14, 16]: 0
Cocklebur plant response rating [14, 17]: 0
Cocklebur plant response rating [14, 19]: 0
Cocklebur plant response rating [14, 20]: 0
Cocklebur plant response rating [14, 21]: 0
Plant response rating, Cocklebur [14, 22]: 0
Cocklebur plant response rating [14, 23]: 0
Redroot pigweed plant response rating [15, 16]: 0
Redroot pigweed plant response rating [15, 17]: 0
Redroot pigweed plant response rating (0 to 10 scale) [15, 18]: 0
Redroot pigweed plant response rating [15, 19]: 0
Redroot pigweed plant response rating [15, 20]: 0
Redroot pigweed plant response rating [15, 21]: 0
Plant response rating, Redroot pigweed [15, 22]: 0
Redroot pigweed plant response rating [15, 23]: 0

— patent publication US6737383B1, “Herbicidal oxadiazolidines” (priority 1999, dated 2004)
